Test results: ChEMBL document CHEMBL5136987, “Redesigning of the cap conformation and symmetry of the diphenylethyne core to yield highly potent pan-genotypic NS5A inhibitors with high potency and high resistance barrier” (Eur J Med Chem, 2022)
Calls of active or inactive are those of the source. The calls are words filed in the database; no cut-off is given here.

Assays:
[1] = tested on: Hepatitis C virus; assay: Antiviral activity against HCV GT-1b Con1 in human Huh-5-2 cells carrying HCV subgenomic replicon assessed as reduction of viral replication measured after 72 hrs by Firefly luciferase reporter gene assay; format: functional, organism-based, Hepacivirus hominis; details: subtype 1b Con1, Huh-5-2, 72 h
[2] = Selectivity index, ratio of CC50 for cytotoxicity against human Huh-5-2 cells carrying HCV subgenomic replicon assessed as decrease in intracellular ATP level to EC50 for antiviral activity against HCV GT-1b Con1 in human Huh-5-2 cells carrying HCV subgenomic replicon assessed as reduction of viral replication; format: toxicity, cell-based; details: read-out: Ratio CC50/EC50
[3] = Cytotoxicity against human Huh-5-2 cells carrying HCV subgenomic replicon assessed as decrease in intracellular ATP level measured after 72 hrs by Glo-max luminescence based assay; format: toxicity, cell-based
[4] = Metabolic stability in human S9 fraction assessed as half life at 10 mg/ml measured upto 120 mins in presence of NADP […] system by LC-MS/MS analysis; format: ADME, subcellular
[5] = Metabolic stability in human S9 fraction assessed as clearance at 10 mg/ml measured upto 120 mins in presence of NADP […] system by LC-MS/MS analysis; format: ADME, subcellular
[6] = tested on: Hepatitis C virus; assay: Antiviral activity against HCV GT-1b Con1 in human Huh-5-2 cells carrying HCV subgenomic replicon assessed as drug resistance upto 100X EC50 and measured after 15 weeks in presence of G418 by NGS analysis; format: functional, organism-based, Hepacivirus hominis; details: subtype 1b Con1, Huh-5-2
[7] = tested on: Hepatitis C virus; assay: Antiviral activity against HCV GT-1b Con1 in human Huh-5-2 cells carrying HCV subgenomic replicon assessed as drug resistance upto 100X EC50 and measured after 30 passages in presence of G418 by NGS analysis; format: functional, organism-based, Hepacivirus hominis; details: subtype 1b Con1, Huh-5-2
[8] = tested on: Hepatitis C virus; assay: Antiviral activity against full length HCV GT-1a H77S.3 in human Huh-7-Lunet cells carrying HCV subgenomic replicon assessed as inhibition of viral replication measured after 72 hrs by Firefly luciferase reporter gene assay; format: functional, organism-based, Hepacivirus hominis; details: genotype 1a H77S.3, Huh-7, 72 h
[9] = tested on: Hepatitis C virus; assay: Antiviral activity against HCV 3a S52 in human Huh7.5 cells carrying HCV subgenomic replicons assessed as inhibition of viral replication measured after 72 hrs by Firefly luciferase reporter gene assay; format: functional, organism-based, Hepacivirus hominis; details: subtype 3a S52, Huh7.5, 72 h
[10] = tested on: Hepatitis C virus; assay: Antiviral activity against HCV 2a JFH1 in human Huh-7 cells carrying HCV subgenomic replicon assessed as inhibition of viral replication measured after 72 hrs by Firefly luciferase reporter gene assay; format: functional, cell-based; details: 2a JFH1, Huh-7, 72 h
[11] = tested on: Hepatitis C virus; assay: Antiviral activity against HCV 4a ED43 in human Huh7.5 cells carrying HCV subgenomic replicon assessed as inhibition of viral replication measured after 72 hrs by Firefly luciferase reporter gene assay; format: functional, organism-based, Hepacivirus hominis; details: subtype 4a ED43, Huh7.5, 72 h
[12] = Selectivity index, ratio of EC50 for antiviral activity against HCV GT-1b Con1 in human Huh-5-2 cells carrying HCV subgenomic replicon assessed as drug resistance measured after 15weeks in presence of G418 by NGS analysis to EC50 for antiviral activity against HCV GT-1b Con1 in human Huh-5-2 cells carrying HCV subgenomic replicon assessed as drug resistance measured after 30 passages in presence of G418; format: functional, Hepatitis C virus subtype 1b
[13] = tested on: Hepatitis C virus; assay: Antiviral activity against HCV GT-1b Con1 infected in human Huh-5-2 cells carrying HCV subgenomic replicon assessed as reduction in NS5A protein level incubated at 3.3 to 30 pM by PI staining based indirect immunofluorescence assay; format: functional, organism-based; details: Hepacivirus hominis, subtype 1b Con1, dose 3.3-30 pM
[14] = tested on: Hepatitis C virus; assay: Antiviral activity against HCV GT-1b Con1 infected in human Huh-5-2 cells carrying HCV subgenomic replicon assessed as reduction of viral replication by RT-qPCR analysis; format: functional, organism-based, Hepacivirus hominis; details: subtype 1b Con1, Huh-5-2

SMILES	EC50 [1] [nM]	selectivity ratio [2]	CC50 at 72 h [3] [nM]	half-life at 10 mg/ml [4] [min]	other results
COC(=O)N[C@H](CC(C)C)C(=O)N1CCC[C@H]1C(=O)Nc1cccc(C#Cc2cccc(NC(=O)[C@@H]3CCCN3C(=O)[C@@H](CC(C)C)NC(=O)OC)c2)c1	0.175	560000	97800	–	–
COC(=O)N[C@@H](C(=O)N1CCC[C@H]1C(=O)Nc1ccc(C#Cc2cccc(NC(=O)[C@@H]3CCCN3C(=O)[C@H](NC(=O)OC)c3ccccc3)c2)cc1)c1ccccc1	1	> 995	> 1000	–	–
COC(=O)N[C@H](CCSC)C(=O)N1CCC[C@H]1C(=O)Nc1cccc(C#Cc2cccc(NC(=O)[C@@H]3CCCN3C(=O)[C@@H](CCSC)NC(=O)OC)c2)c1	0.528	> 1890	> 1000	–	–
COC(=O)N[C@H](C(=O)N1CCC[C@H]1C(=O)Nc1cccc(C#Cc2cccc(NC(=O)[C@@H]3CCCN3C(=O)[C@@H](NC(=O)OC)c3ccccc3)c2)c1)c1ccccc1	0.0044	5.56e+06	24200	75.9	microsomal CLint [5]: 9.9 µL/min/mg
C[C@]12CC[C@H]3[C@@H](CCC4=CC(=O)CC[C@@]43C)[C@@H]1CC[C@@H]2O [TESTOSTERONE]	–	–	–	7.4	–
COC(=O)N[C@H](C(=O)N1CCC[C@H]1c1ncc(-c2ccc(-c3ccc(-c4cnc([C@@H]5CCCN5C(=O)[C@@H](NC(=O)OC)C(C)C)[nH]4)cc3)cc2)[nH]1)C(C)C [DACLATASVIR]	–	–	–	–	EC50 [6]: 3.39 nM; EC50 [7]: 0.0257 nM; EC50 [8]: 0.136 nM; EC50 [9]: 8.35 nM; EC50 [10]: 0.0578 nM; EC50 [11]: 0.0212 nM; Ratio EC50 [12]: 132
COC(=O)N[C@@H](CC(C)C)C(=O)N1CCC[C@H]1C(=O)Nc1cccc(C#Cc2cccc(NC(=O)[C@@H]3CCCN3C(=O)[C@H](CC(C)C)NC(=O)OC)c2)c1	0.133	407000	54400	–	–
CC(C)[C@H](NC(=O)OCc1ccccc1)C(=O)N1CCC[C@H]1C(=O)Nc1cccc(C#Cc2cccc(NC(=O)[C@@H]3CCCN3C(=O)[C@@H](NC(=O)OCc3ccccc3)C(C)C)c2)c1	999	–	> 1000	–	–
COC(=O)N[C@@H](C(=O)N1CCC[C@H]1C(=O)Nc1ccc(C#Cc2ccc(NC(=O)[C@@H]3CCCN3C(=O)[C@H](NC(=O)OC)c3ccccc3)cc2)cc1)c1ccccc1	0.00259	–	28200	> 120	EC50 [9]: 0.316 nM; EC50 [10]: 0.147 nM; EC50 [11]: 0.194 nM; microsomal CLint [5]: < 5.8 µL/min/mg
COC(=O)N[C@@H](C(=O)N1CCCC1C(=O)Nc1cccc(C#Cc2cccc(-c3cnc([C@@H]4CCCN4C(=O)[C@H](NC(=O)OC)c4ccccc4)[nH]3)c2)c1)c1ccccc1 (single isomer, unassigned)	0.0906	> 11000	> 1000	73.6	microsomal CLint [5]: 9.4 µL/min/mg
CCCCOC(=O)N[C@@H](CC(C)C)C(=O)N1CCC[C@H]1C(=O)Nc1cccc(C#Cc2cccc(NC(=O)[C@@H]3CCCN3C(=O)[C@H](CC(C)C)NC(=O)OCCCC)c2)c1	> 1000	–	> 1000	–	–
CCOC(=O)N[C@H](C(=O)N1CCC[C@H]1C(=O)Nc1cccc(C#Cc2cccc(NC(=O)[C@@H]3CCCN3C(=O)[C@@H](NC(=O)OCC)C(C)C)c2)c1)C(C)C	12.2	> 8230	> 100000	–	–
COC(=O)N[C@H](C(=O)N1CCC[C@H]1C(=O)Nc1ccc(C#Cc2cccc(NC(=O)[C@@H]3CCCN3C(=O)[C@@H](NC(=O)OC)C(C)C)c2)cc1)C(C)C	0.179	231000	41200	–	–
COC(=O)N[C@@H](C(=O)N1CCC[C@H]1C(=O)Nc1cccc(C#Cc2ccc(-c3cnc([C@@H]4CCCN4C(=O)[C@H](NC(=O)OC)c4ccccc4)[nH]3)cc2)c1)c1ccccc1	0.00114	–	26200	> 120	EC50 [9]: 0.229 nM; EC50 [10]: 0.134 nM; EC50 [11]: 0.0504 nM; microsomal CLint [5]: < 5.8 µL/min/mg
COC(=O)N[C@H](C(=O)N1CCC[C@H]1C(=O)Nc1cccc(C#Cc2cccc(NC(=O)[C@@H]3CCCN3C(=O)[C@H](NC(=O)OC)c3ccccc3)c2)c1)C(C)C	0.0033	–	33600	18.8	microsomal CLint [5]: 36.4 µL/min/mg
COC(=O)N[C@@H](C(=O)N1CCC[C@H]1C(=O)Nc1cccc(C#Cc2cccc(NC(=O)[C@@H]3CCCN3C(=O)[C@H](NC(=O)OC)C(C)C)c2)c1)C(C)C	1.12	> 891	> 1000	–	–
CCOC(=O)N[C@@H](CC(C)C)C(=O)N1CCC[C@H]1C(=O)Nc1cccc(C#Cc2cccc(NC(=O)[C@@H]3CCCN3C(=O)[C@H](CC(C)C)NC(=O)OCC)c2)c1	25	968	24200	–	–
COC(=O)N[C@@H](CCSC)C(=O)N1CCC[C@H]1C(=O)Nc1cccc(C#Cc2cccc(NC(=O)[C@@H]3CCCN3C(=O)[C@H](CCSC)NC(=O)OC)c2)c1	0.136	> 7350	> 1000	–	–
COC(=O)N[C@H](C(=O)N1CCC[C@H]1C(=O)Nc1cccc(C#Cc2cccc(NC(=O)[C@@H]3CCCN3C(=O)[C@@H](NC(=O)OC)C(C)C)c2)c1)C(C)C	0.0308	> 3.25e+06	> 100000	–	EC50 [9]: 2150 nM; EC50 [10]: 233 nM; EC50 [11]: 279 nM
COC(=O)N[C@@H](C(=O)N1CCC[C@H]1C(=O)Nc1cccc(C#Cc2cccc(NC(=O)[C@@H]3CCCN3C(=O)[C@H](NC(=O)OC)c3ccccc3)c2)c1)c1ccccc1	0.00123	–	43200	20	Activity [13]: Active; EC50 [14]: 0.00157 nM; EC50 [6]: 0.171 nM; EC50 [7]: 0.00266 nM; EC50 [8]: 0.0259 nM; EC50 [9]: 0.0559 nM; EC50 [10]: 0.123 nM; EC50 [11]: 0.0163 nM; microsomal CLint [5]: 35.6 µL/min/mg; Ratio EC50 [12]: 64.4
CCSC[C@@H](NC(=O)OC)C(=O)N1CCC[C@H]1C(=O)Nc1cccc(C#Cc2cccc(NC(=O)[C@@H]3CCCN3C(=O)[C@@H](CSCC)NC(=O)OC)c2)c1	0.86	13000	11200	–	–
CCCCOC(=O)N[C@H](C(=O)N1CCC[C@H]1C(=O)Nc1cccc(C#Cc2cccc(NC(=O)[C@@H]3CCCN3C(=O)[C@@H](NC(=O)OCCCC)C(C)C)c2)c1)C(C)C	577	> 173	> 100000	–	–
COC(=O)N[C@H](C(=O)N1CCC[C@H]1C(=O)Nc1ccc(C#Cc2ccc(NC(=O)[C@@H]3CCCN3C(=O)[C@@H](NC(=O)OC)C(C)C)cc2)cc1)C(C)C	0.131	> 7660	> 1000	–	EC50 [9]: 405 nM; EC50 [10]: 60.1 nM; EC50 [11]: 446 nM
